From PubChem BioAssay (NCI)
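Values below derive from 48-hour exposures of cells grown in 96-well plates, with endpoints linearly interpolated between the two concentrations bracketing the appropriate inhibition level. GI50 is the concentration that inhibits growth by half. TGI marks complete inhibition of growth.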

Legend:
Test in all cases: DTP human tumour cell line panel, 48 h
HL-60(TB) leukemia = tested on: HL-60(TB) leukemia
CAKI-1 renal = tested on: CAKI-1 renal
SNB-19 CNS = tested on: SNB-19 CNS
OVCAR-8 ovarian = tested on: OVCAR-8 ovarian
LOX IMVI melanoma = tested on: LOX IMVI melanoma
RPMI-8226 leukemia = tested on: RPMI-8226 leukemia
EKVX NSCLC = tested on: EKVX NSCLC
SW-620 colon = tested on: SW-620 colon
HOP-62 NSCLC = tested on: HOP-62 NSCLC
K-562 leukemia = tested on: K-562 leukemia

Structure (SMILES)	TGI (HL-60(TB) leukemia)	TGI (CAKI-1 renal)	TGI (SNB-19 CNS)	TGI (OVCAR-8 ovarian)	TGI (LOX IMVI melanoma)	TGI (RPMI-8226 leukemia)	TGI (EKVX NSCLC)	TGI (SW-620 colon)	TGI (HOP-62 NSCLC)	TGI (K-562 leukemia)	GI50 (HL-60(TB) leukemia)	GI50 (CAKI-1 renal)	GI50 (SNB-19 CNS)	GI50 (OVCAR-8 ovarian)	GI50 (LOX IMVI melanoma)	GI50 (RPMI-8226 leukemia)	GI50 (EKVX NSCLC)	GI50 (SW-620 colon)	GI50 (HOP-62 NSCLC)	GI50 (K-562 leukemia)
Cc1ccc(S(=O)(=O)Nc2nc3ccccc3c(=O)n2C2CCCCC2)cc1	> 100 µM	> 100 µM	> 100 µM	> 100 µM	> 100 µM	> 100 µM	> 100 µM	> 100 µM	> 100 µM	> 100 µM										
Cc1c(C#N)c2nnn(-c3ccc([N+](=O)[O-])cc3)c(=O)n2c1-c1ccccc1	60.3 µM	52.2 µM	36.7 µM	25.7 µM	22 µM	> 100 µM	32 µM	51 µM	19.8 µM	30.6 µM										
COc1ccc(C[C@H]2NC(=O)/C=C/C[C@@H]([C@H](C)[C@H]3O[C@@H]3c3ccccc3)OC(=O)[C@H](CC(C)C)OC(=O)[C@H](C)CNC2=O)cc1	5.2e-05 µM	> 0.0001 µM	> 0.0001 µM	5.55e-05 µM	> 0.0001 µM	> 0.0001 µM	> 9.66e-05 µM	> 0.0001 µM	> 7.45e-05 µM	> 8.13e-05 µM										
CN(C)NC1=NS(=O)(=O)c2cc3c(cc2S1)N(N(C)C)C(=O)c1cc2c(cc1N(N(C)C)C3=O)SC(NN(C)C)=NS2(=O)=O	> 10 µM	> 10 µM	> 10 µM	> 10 µM	> 10 µM	> 10 µM	> 10 µM	> 10 µM	> 10 µM	> 10 µM										
COc1ccc(-c2cc(C3CC3)nc(SCC(=O)O)c2C#N)cc1	> 100 µM	> 100 µM	> 100 µM	> 100 µM	> 100 µM	> 100 µM	> 100 µM	> 100 µM	> 100 µM	> 100 µM										
COc1ccc(C2c3cc4c(cc3OC(NNC(N)=O)C2C)OCO4)cc1 (configuration not stated)	5.22 µM	> 100 µM	> 100 µM	> 57.9 µM	> 100 µM	20.2 µM	> 100 µM	> 100 µM	> 54.4 µM	> 34.9 µM										
O=c1[nH]nc(Cc2ccccc2)n1/N=C/c1ccc([N+](=O)[O-])o1	> 100 µM	25 µM	38.1 µM	19.2 µM	> 100 µM	21.2 µM	16.7 µM	> 100 µM	22 µM	> 100 µM										
CC(=O)[C@H]1CC[C@H]2[C@@H]3CCC4=CC(=O)CC[C@]4(C)[C@H]3CC[C@]12C	87.1 µM	> 100 µM	> 100 µM	47.3 µM	33.3 µM	26.3 µM	9.66 µM	> 100 µM	45.4 µM	43.2 µM										
COc1cc(CCNC2=CC(=O)c3cccnc3C2=O)ccc1O	9.43 µM	5.04 µM	4.04 µM	12 µM	1.41 µM	5.2 µM	11.5 µM	2.94 µM	2.86 µM	2.15 µM										
Cc1ccc(S(=O)(=O)N(CC(O)c2ccccc2)c2ccccc2F)cc1 (configuration not stated)	9.13 µM	33.7 µM	37.5 µM	36.9 µM	31.5 µM	39 µM	> 100 µM	39.9 µM	33.8 µM	44.5 µM										
NNC(=O)Cc1cccnc1	> 100 µM	> 100 µM	> 100 µM	> 100 µM	> 100 µM	> 100 µM	> 100 µM	> 100 µM	> 100 µM	> 100 µM										
CC(/C=N/N(C)C1=NCCCCN1)=N/N(C)C1=NCCCCN1	> 100 µM	> 100 µM	> 100 µM	> 100 µM	> 100 µM	> 100 µM	> 100 µM	> 100 µM	> 100 µM	> 100 µM										
CC1(CCc2ccccc2)CC1(Br)Br (configuration not stated)	41.9 µM	> 100 µM	> 100 µM	50.8 µM	37.4 µM	44.8 µM	40 µM	> 100 µM	> 100 µM	38.2 µM										
c1ccc2c(c1)CCN(C1=NCCO1)C2	> 10 µM	> 10 µM	> 10 µM	> 10 µM	> 10 µM	> 10 µM	> 10 µM	> 10 µM	> 10 µM	> 10 µM										
O=C1OC(C2Cc3ccccc3C2=O)c2ccccc21 (configuration not stated)	> 100 µM	> 100 µM	> 100 µM	> 100 µM	> 100 µM	> 100 µM	> 100 µM	> 100 µM	> 100 µM	> 100 µM										
N#Cc1ccc(OC(=O)c2ccc(N=C(N)N)cc2)cc1	> 100 µM	> 100 µM	> 100 µM	> 100 µM	> 100 µM	> 100 µM	> 100 µM	> 100 µM	> 100 µM	> 100 µM										
COC(=O)C1=C(O)C(C(=O)OC)[C@]2(O)[C@H](C(=O)OC)[C@H]1C[C@@H](c1cccc(OC)c1)[C@H]2C(=O)OC (some centres not stated)	> 100 µM	73.3 µM	81.7 µM	> 100 µM	> 100 µM	> 100 µM	> 100 µM	> 100 µM	89.5 µM	> 100 µM										
O=C(Nc1ccc(Cl)cc1)c1cccc([N+](=O)[O-])c1O	7.18 µM	17.1 µM	> 50.9 µM	> 69.8 µM	> 100 µM	7.2 µM	14.8 µM	> 100 µM	9.13 µM	24.2 µM										
O=C(Nc1ccc(-n2cc(-c3ccncc3)c(-c3ccc(O)c(Cl)c3)n2)cc1)c1cc(Cl)cc(Cl)c1	> 32.5 µM	28 µM	> 32.5 µM	> 32.5 µM	> 32.5 µM	6.18 µM	> 32.5 µM	> 32.5 µM	> 32.5 µM	> 32.5 µM	1.6 µM	2.64 µM	2.95 µM	1.66 µM	0.853 µM	1.07 µM	18.2 µM	2.21 µM	2.87 µM	1.02 µM
O=C(O)C(F)(F)C(F)(F)C(F)(F)C(F)(F)C(=O)O	> 100 µM	> 100 µM	> 100 µM	> 100 µM	> 100 µM	> 100 µM	> 100 µM	> 100 µM	> 100 µM	> 100 µM										
O=C1c2n[nH]nc2C(=O)c2n[nH]nc21	> 100 µM	> 100 µM	> 100 µM	> 100 µM	> 100 µM	> 100 µM	> 100 µM	> 100 µM	> 100 µM	> 100 µM										
C\C=C/C=C/C=C/C(=O)O	> 100 µM	> 100 µM	> 100 µM	> 100 µM	> 100 µM	> 100 µM	> 100 µM	> 100 µM	> 100 µM	> 100 µM										
O=C(Nc1ccccc1)c1cc(S(=O)(=O)Nc2n[nH]c(=O)[nH]2)c(SSc2cc(Cl)c(C(=O)Nc3ccccc3)cc2S(=O)(=O)Nc2n[nH]c(=O)[nH]2)cc1Cl	> 100 µM	> 100 µM	> 100 µM	> 100 µM	> 100 µM	> 100 µM	> 100 µM	> 100 µM	> 100 µM	> 100 µM										
COC(=O)c1ccc(CCC2=CC(=O)C(Br)=CC2=O)cc1	5.2 µM	26.4 µM	29.2 µM	32 µM	33.3 µM	49.3 µM	38.7 µM	27.1 µM	31.6 µM	4.84 µM										
CSc1nc2c(c(=O)n1C)N=C(c1ccc(Cl)cc1)CC(c1ccccc1)N2 (configuration not stated)	62.4 µM	46.4 µM	> 100 µM	> 100 µM	54.3 µM	47.8 µM	65.1 µM	> 100 µM	71.4 µM	53.2 µM										
CCCN=C1Nc2ccccc2[C@@H]2N(C)c3ccccc3C(C)C[C@]12C (some centres not stated)	56.1 µM	84.5 µM	44.8 µM	28.9 µM	27.7 µM	41.7 µM	> 100 µM	36 µM	32.1 µM	> 100 µM										
OCCN1CN(c2nc(N3CN(CCO)C3)nc(N3CN(CCO)C3)n2)C1	40.1 µM	58.2 µM	49.6 µM	> 100 µM	33.5 µM	> 100 µM	70.1 µM	> 100 µM	39.2 µM	87.3 µM										
O=C(O)CCC(C(=O)O)N1C(=O)c2ccccc2C1=O (configuration not stated)	> 100 µM	> 100 µM	> 100 µM	> 100 µM	> 100 µM	> 100 µM	> 100 µM	> 100 µM	> 100 µM	> 100 µM										
COc1cc(C(=O)O[C@H](C(=O)NCCNC(=O)[C@@H](OC(=O)c2cc(OC)cc3c(C)cccc23)[C@]2(C)CO2)[C@]2(C)CO2)c2cccc(C)c2c1		0.252 µM		0.0683 µM		10.6 µM	1.55 µM	> 100 µM	0.919 µM	15.3 µM	< 0.01 µM	0.0563 µM	0.22 µM	< 0.01 µM	< 0.01 µM	0.282 µM	0.21 µM	< 0.01 µM	0.16 µM	< 0.0193 µM
